Test results as given in US20250041232A1, “MICROSPHERES COMPRISING HIGH-DOSE VARENICLINE, METHOD FOR PREPARING SAME, AND PHARMACEUTICAL COMPOSITION COMPRISING SAME” (AULBIO CO., LTD., priority 2021, published 2025).

Test: Measurement of varenicline loading amount and encapsulation efficiency in microspheres (HPLC)
Format: physicochemical
Conditions: microspheres dissolved in acetonitrile/80% methanol, HPLC-UV
Protocol: About 10 mg of the microspheres prepared in Example 2 and Comparative Examples 1 and 2 were taken, placed in a 20 mL flask, and completely dissolved in 2 mL of acetonitrile (manufacturer: Honeywell). It was adjusted to the mark with 80% methanol (manufacturer: Honeywell) and filtered through a 0.45 μm syringe filter. This solution was detected with an ultraviolet-visible spectrophotometer using HPLC (equipment name: Agilent). L1 (inner diameter 4.6 mm×150 mm, thickness 5 μm) was used as the column.

Substance: varenicline pamoate salt
- Encapsulation efficiency (%): more than 90%
